Data taken from PubChem BioAssay (NCI).
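1) Cells in 96-well plates. 2) Compound, 48 h, 5 concentrations. 3) Linear interpolation between surrounding doses. 4) Unreached endpoint = highest concentration. Here, GI50 denotes the concentration required for 50% inhibition of growth. The concentration for full growth arrest is given as TGI.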

How the values were obtained:
Test in all cases: inhibition of tumour cell growth, NCI panel, 48 h
786-0 renal = system: 786-0 renal
A498 renal = system: A498 renal
A549 NSCLC = system: A549 NSCLC
ACHN renal = system: ACHN renal
BT-549 breast = system: BT-549 breast
CAKI-1 renal = system: CAKI-1 renal
CCRF-CEM leukemia = system: CCRF-CEM leukemia
COLO 205 colon = system: COLO 205 colon
DU-145 prostate = system: DU-145 prostate
EKVX NSCLC = system: EKVX NSCLC
HCC-2998 colon = system: HCC-2998 colon
HCT-116 colon = system: HCT-116 colon
HCT-15 colon = system: HCT-15 colon
HL-60(TB) leukemia = system: HL-60(TB) leukemia
HOP-62 NSCLC = system: HOP-62 NSCLC
HOP-92 NSCLC = system: HOP-92 NSCLC
HS 578T breast = system: HS 578T breast
HT29 colon = system: HT29 colon
IGROV1 ovarian = system: IGROV1 ovarian
K-562 leukemia = system: K-562 leukemia
KM12 colon = system: KM12 colon
LOX IMVI melanoma = system: LOX IMVI melanoma
M14 melanoma = system: M14 melanoma
MALME-3M melanoma = system: MALME-3M melanoma
MCF7 breast = system: MCF7 breast
MDA-MB-231 breast = system: MDA-MB-231 breast
MDA-MB-435 = system: MDA-MB-435
MOLT-4 leukemia = system: MOLT-4 leukemia
NCI-H226 lung = system: NCI-H226 lung
NCI-H23 lung = system: NCI-H23 lung
NCI-H460 lung = system: NCI-H460 lung
NCI-H522 lung = system: NCI-H522 lung
NCI/ADR-RES ovarian = system: NCI/ADR-RES ovarian
OVCAR-3 ovarian = system: OVCAR-3 ovarian
OVCAR-4 ovarian = system: OVCAR-4 ovarian
OVCAR-5 ovarian = system: OVCAR-5 ovarian
OVCAR-8 ovarian = system: OVCAR-8 ovarian
PC-3 prostate = system: PC-3 prostate
RPMI-8226 leukemia = system: RPMI-8226 leukemia
RXF 393 renal = system: RXF 393 renal
SF-268 CNS = system: SF-268 CNS
SF-295 CNS = system: SF-295 CNS
SF-539 CNS = system: SF-539 CNS
SK-MEL-2 melanoma = system: SK-MEL-2 melanoma
SK-MEL-28 melanoma = system: SK-MEL-28 melanoma
SK-MEL-5 melanoma = system: SK-MEL-5 melanoma
SK-OV-3 ovarian = system: SK-OV-3 ovarian
SN12C renal = system: SN12C renal
SNB-19 CNS = system: SNB-19 CNS
SNB-75 CNS = system: SNB-75 CNS
SW-620 colon = system: SW-620 colon
T-47D breast = system: T-47D breast
TK-10 renal = system: TK-10 renal
U251 CNS = system: U251 CNS
UACC-257 melanoma = system: UACC-257 melanoma
UACC-62 melanoma = system: UACC-62 melanoma
UO-31 renal = system: UO-31 renal

With `CCOC(=O)C1=C(C)N=C2SC=C(c3ccccc3)N2[C@H]1c1cn[nH]c1-c1ccc(Cl)cc1` the GI50 (786-0 renal) was 5.2 µM, the TGI (786-0 renal) was 17 µM and the GI50 (A498 renal) was 5.37 µM. For the same compound, the TGI (A498 renal) was 18.2 µM, the GI50 (A549 NSCLC) was 6.73 µM and the TGI (A549 NSCLC) was 24.7 µM. For the same compound, the GI50 (ACHN renal) was 3.03 µM, the TGI (ACHN renal) was 11.7 µM and the GI50 (BT-549 breast) was 3.84 µM. For the same compound, the TGI (BT-549 breast) was 13.9 µM, the GI50 (CAKI-1 renal) was 1.76 µM and the TGI (CAKI-1 renal) was 3.56 µM. It also gave a GI50 (CCRF-CEM leukemia) of 3.12 µM, a TGI (CCRF-CEM leukemia) of 14 µM and a GI50 (COLO 205 colon) of 3.53 µM. It also gave a TGI (COLO 205 colon) of 15.1 µM, a GI50 (DU-145 prostate) of 6.12 µM and a TGI (DU-145 prostate) of 18.8 µM. For the same compound, the GI50 (EKVX NSCLC) was 7.68 µM, the TGI (EKVX NSCLC) was 22.3 µM and the GI50 (HCC-2998 colon) was 6.24 µM. It also gave a TGI (HCC-2998 colon) of 20.4 µM, a GI50 (HCT-116 colon) of 3.11 µM and a TGI (HCT-116 colon) of 13.3 µM. The GI50 (HCT-15 colon) was 3.19 µM, the TGI (HCT-15 colon) was 11.7 µM and the GI50 (HL-60(TB) leukemia) was 2.85 µM. It also gave a TGI (HL-60(TB) leukemia) of 7.98 µM, a GI50 (HOP-62 NSCLC) of 7.09 µM and a TGI (HOP-62 NSCLC) of 22 µM. The GI50 (HOP-92 NSCLC) was 2.4 µM, the TGI (HOP-92 NSCLC) was 8.7 µM and the GI50 (HS 578T breast) was 3.68 µM. The TGI (HS 578T breast) was 34.5 µM, the GI50 (HT29 colon) was 4.32 µM and the TGI (HT29 colon) was 13.7 µM. The GI50 (IGROV1 ovarian) was 2.33 µM, the TGI (IGROV1 ovarian) was 7.61 µM and the GI50 (K-562 leukemia) was 3.67 µM. For the same compound, the TGI (K-562 leukemia) was 23.2 µM, the GI50 (KM12 colon) was 4.69 µM and the TGI (KM12 colon) was 17.5 µM. The GI50 (LOX IMVI melanoma) was 1.46 µM, the TGI (LOX IMVI melanoma) was 3.43 µM and the GI50 (M14 melanoma) was 4.37 µM. It also gave a TGI (M14 melanoma) of 19.2 µM, a GI50 (MALME-3M melanoma) of 1.6 µM and a TGI (MALME-3M melanoma) of 3.45 µM. It also gave a GI50 (MCF7 breast) of 2.7 µM, a TGI (MCF7 breast) of 13.8 µM and a GI50 (MDA-MB-231 breast) of 2.32 µM. The TGI (MDA-MB-231 breast) was 7.96 µM, the GI50 (MDA-MB-435) was 4.07 µM and the TGI (MDA-MB-435) was 15.2 µM. It also gave a GI50 (MOLT-4 leukemia) of 2.29 µM, a TGI (MOLT-4 leukemia) of 7.41 µM and a GI50 (NCI-H226 lung) of 8.25 µM. The TGI (NCI-H226 lung) was 46.1 µM, the GI50 (NCI-H23 lung) was 4.64 µM and the TGI (NCI-H23 lung) was 19.6 µM. For the same compound, the GI50 (NCI-H460 lung) was 3.36 µM, the TGI (NCI-H460 lung) was 12.7 µM and the GI50 (NCI-H522 lung) was 1.68 µM. It also gave a TGI (NCI-H522 lung) of 3.44 µM, a GI50 (NCI/ADR-RES ovarian) of 5.97 µM and a TGI (NCI/ADR-RES ovarian) of 27.6 µM. It also gave a GI50 (OVCAR-3 ovarian) of 3.21 µM, a TGI (OVCAR-3 ovarian) of 12 µM and a GI50 (OVCAR-4 ovarian) of 4.66 µM. For the same compound, the TGI (OVCAR-4 ovarian) was 16.6 µM, the GI50 (OVCAR-5 ovarian) was 6.06 µM and the TGI (OVCAR-5 ovarian) was 19.9 µM. The GI50 (OVCAR-8 ovarian) was 4.46 µM, the TGI (OVCAR-8 ovarian) was 19.6 µM and the GI50 (PC-3 prostate) was 3.98 µM. For the same compound, the TGI (PC-3 prostate) was 17.3 µM, the GI50 (RPMI-8226 leukemia) was 2.65 µM and the TGI (RPMI-8226 leukemia) was 9.39 µM. For the same compound, the GI50 (RXF 393 renal) was 5.32 µM, the TGI (RXF 393 renal) was 19.1 µM and the GI50 (SF-268 CNS) was 3.65 µM. For the same compound, the TGI (SF-268 CNS) was 16.6 µM, the GI50 (SF-295 CNS) was 7.96 µM and the TGI (SF-295 CNS) was 22.2 µM. For the same compound, the GI50 (SF-539 CNS) was 5.68 µM, the TGI (SF-539 CNS) was 18 µM and the GI50 (SK-MEL-2 melanoma) was 6.21 µM. It also gave a TGI (SK-MEL-2 melanoma) of 19.3 µM, a GI50 (SK-MEL-28 melanoma) of 4.92 µM and a TGI (SK-MEL-28 melanoma) of 16.8 µM. The GI50 (SK-MEL-5 melanoma) was 3.22 µM, the TGI (SK-MEL-5 melanoma) was 12 µM and the GI50 (SK-OV-3 ovarian) was 7.39 µM. For the same compound, the TGI (SK-OV-3 ovarian) was 20.1 µM, the GI50 (SN12C renal) was 4.51 µM and the TGI (SN12C renal) was 17.3 µM. It also gave a GI50 (SNB-19 CNS) of 7.65 µM, a TGI (SNB-19 CNS) of 20.7 µM and a GI50 (SNB-75 CNS) of 5.05 µM. For the same compound, the TGI (SNB-75 CNS) was 18.3 µM, the GI50 (SW-620 colon) was 3.84 µM and the TGI (SW-620 colon) was 14.4 µM. The GI50 (T-47D breast) was 3.13 µM, the TGI (T-47D breast) was 22.4 µM and the GI50 (TK-10 renal) was 10.2 µM. The TGI (TK-10 renal) was 22.2 µM, the GI50 (U251 CNS) was 3.8 µM and the TGI (U251 CNS) was 16.4 µM. The GI50 (UACC-257 melanoma) was 10.1 µM, the TGI (UACC-257 melanoma) was 24.1 µM and the GI50 (UACC-62 melanoma) was 2.85 µM. The TGI (UACC-62 melanoma) was 12.5 µM, the GI50 (UO-31 renal) was 1.39 µM and the TGI (UO-31 renal) was 9.53 µM.
